Columns and labels:
p38α = biological target: T1, p38α (Homo sapiens, UniProt Q16539); assay: In vitro enzyme assay, p38α kinase; format: biochemical; details: approximate value; read-out: IC50 against p38α
T1 construct: c-myc (N); 6His (N); made in house; host or cells: E. coli (PET vectors)
Protocol: The ability of compounds of the invention to inhibit the enzyme p38 kinase was assessed. Activity of test compounds against each of the p38α and p38β isoforms of the enzyme was determined.
Human recombinant MKK6 (GenBank Accesion Number G1209672) was isolated from Image clone 45578 (Genomics 1996, 33, 151) and utilised to produce protein in the form of a GST fusion protein in a pGEX vector using analogous procedures to those disclosed by J. Han el al., Journal of Biological Chemistry, 1996, 271, 2886-2891. p38α (GenBank Accession Number G529039) and p38β (GenBank Accession Number G1469305) were isolated by PCR amplification of human lymphoblastoid cDNA (GenBank Accession Number GM1416) and human foetal brain cDNA [synthesised from mRNA (Clontech, catalogue no. 6525-1) using a Gibco superscript cDNA synthesis kit] respectively using oligonucleotides designed for the 5′ and 3′ ends of the human p38α and p38β genes using analogous procedures to those described by J. Han et al., Biochimica et Biophysica Acta, 1995, 1265, 224-227 and Y. Jiang et al., Journal of Biological Chemistry 1996, 271, 17920-17926.
Both p38 protein isoforms were expressed in e coli in PET vectors. Human recombinant p38α and p38β isoforms were produced as 5′ c-myc, 6His tagged proteins. Both MKK6 and the p38 proteins were purified using standard protocols: the GST MKK6 was purified using a glutathione sepharose column and the p38 proteins were purified using nickel chelate columns.
The p38 enzymes were activated prior to use by, incubation with MKK6 for 3 hours at 30° C. The unactivated coli-expressed MKK6 retained sufficient activity to fully activate both isoforms of p38. The activation incubate comprised p38α (10 μl of 10 mg/ml) or p38β (10 μl of 5 mg/ml) together with MKK6 (10 μl of 1 mg/ml), ‘Kinase buffer’ [100 μl; pH 7.4 buffer comprising Tris (50 mM), EGTA (0.1 mM), sodium orthovanadate (0.1 mM) and β-mercaptoethanol (0.1%)] and MgATP (30 μl of 50 mM Mg(OCOCH3)2 and 0.5 mM ATP). This produced enough activated p38 enzyme for 3 Microtiter plates.
Test compounds were solubilised in DMSO and 10 μl of a 1:10 diluted sample in ‘Kinase Buffer’ was added to a well in a Microtiter plate. For single dose testing, the compounds were tested at 10 μM. ‘Kinase Assay Mix’ [30 μl; comprising Myelin Basic Protein (Gibco BRL cat no. 1322B-θ10; 1 ml of a 3.33 mg/ml solution in water), activated p38 enzyme (50 μl) and ‘Kinase Buffer’ (2 ml)] was then added followed by ‘Labelled ATP’ [10 μl; comprising 50 μM ATP, 0.1 μCi^33P ATP (Amersham International cat. no. BF 1000) and 50 mM Mg(OCOCH3)21]. The plates were incubated at room temperature with gentle agitation. Plates containing p38α were incubated for 90 min and plates containing p38β were incubated for 45 min. Incubation was stopped by the addition of 50 μl of 20% trichloroacetic acid (TCA). The precipitated protein was phosphorylated by p38 kinase and test compounds were assessed for their ability to inhibit this phosphorylation. The plates were filtered using a Canberra Packard Unifilter and washed with 2% TCA, dried overnight and counted on a Top Count scintillation counter.
Test compounds were tested initially at a single dose and active compounds were retested to allow IC50 values to be determined.

[1] = test system: TNFα production by human peripheral blood mononuclear cells; assay: PBMC test: LPS-stimulated TNFα production; format: cell-based; details: approximate value
Protocol: The ability of compounds of this invention to inhibit TNFα production was assessed by using human peripheral blood mononuclear cells which synthesise and secrete TNFα when stimulated with lipopolysaccharide.
Peripheral blood mononuclear cells (PBMC) were isolated from heparinised (10 units/ml heparin) human blood by density centrifugation (Lymphoprep™; Nycomed). Mononuclear cells were resuspended in culture medium [RPMI 1640 medium (Gibco) supplemented with 50 units/ml penicillin, 50 μg/ml streptomycin, 2 mM glutamine and 1% heat-inactivated human AB serum (Sigma H-1513)]. Compounds were solubilised in DMSO at a concentration of 50 mM, diluted 1:100 in culture medium and subsequently serial dilutions were made in culture medium containing 1% DMSO. PBMCs (2.4×10^5 cells in 160 μl culture medium) were incubated with 20 μl of varying concentrations of test compound (triplicate cultures) or 20 μl culture medium containing 1% DMSO (control wells) for 30 minutes at 37° C. in a humidified (5% CO2/95% air) incubator (Falcon 3072; 96 well flat-bottom tissue culture plates). 20 μl lipopolysaccharide [LPS E. Coli 0111:B4 (Sigma L-4130), final concentration 10 μg/ml] solubilised in culture medium was added to appropriate wells. 20 μl culture medium was added to “medium alone” control wells. Six “LPS alone” and four “medium alone” controls were included on each 96 well plate. Varying concentrations of a known TNFα inhibitor were included in each test, i.e. an inhibitor of the PDE Type IV enzyme (for example see Semmler, J. Wachtel. H and Endres, S., Int. J. Immunopharmac. (1993), 15(3), 409-413) or an inhibitor of proTNFα convertase (for example, see McGeehan, G. M. el al. Nature (1994) 370, 558-561). Plates were incubated for 7 hours at 37° C. (humidified incubator) after which 100 μl of the supernatant was removed from each well and stored at −70° C. (96 well round-bottom plates; Corning 25850). TNFα levels were determined in each sample using a human TNFα ELISA (see WO92/10190 and Current Protocols in Molecular Biology, vol 2 by Frederick M. Ausbel et al., John Wiley and Sons Inc.). […]

[2] = test system: TNFα production in human whole blood; assay: Human Whole Blood (HWB) test: LPS-stimulated TNFα production; format: cell-based; details: approximate value
Protocol: The ability of the compounds of this invention to inhibit TNFα production was also assessed in a human whole blood assay. Human whole blood secretes TNFα when stimulated with LPS. This property of blood forms the basis of an assay which is used as a secondary test for compounds which profile as active in the PBMC test.
Heparinised (10 units/ml) human blood was obtained from volunteers. 160 μl whole blood were added to 96 well round-bottom plates (Corning 25850). Compounds were solubilised and serially diluted in RPMI 1640 medium (Gibco) supplemented with 50 units/ml penicillin, 50 μg/ml streptomycin and 2 mM glutamine, as detailed above. 20 μl of each test concentration was added to appropriate wells (triplicate cultures). 20 μl of RPMI 1640 medium supplemented with antibiotics and glutamine was added to control wells. Plates were incubated for 30 minutes at 37° C. (humidified incubator), prior to addition of 20 μl LPS (final concentration 10 μg/ml). RPMI 1640 medium was added to control wells. Six “LPS alone” and four “medium alone” controls were included on each plate. A known TNFαsynthesis/secretion inhibitor was included in each test. Plates were incubated for 6 hours at 37° C. (humidified incubator). Plates were centrifuged (2000 rpm for 10 minutes) and 100 μl plasma removed and stored at −70° C. (Corning 25850 plates). TNFα levels were measured by ELISA (see WO92/10190 and Current Protocols in Molecular Biology, vol 2 by Frederick M. Ausbel et al., John Wiley and Sons Inc.). The paired antibodies that were used in the ELIZA were obtained from R&D Systems (catalogue nos. MAB610 anti-human TNFα coating antibody, BAF210 biotinylated anti-human TNFα detect antibody).

T1 sequence (Q16539 whole entry): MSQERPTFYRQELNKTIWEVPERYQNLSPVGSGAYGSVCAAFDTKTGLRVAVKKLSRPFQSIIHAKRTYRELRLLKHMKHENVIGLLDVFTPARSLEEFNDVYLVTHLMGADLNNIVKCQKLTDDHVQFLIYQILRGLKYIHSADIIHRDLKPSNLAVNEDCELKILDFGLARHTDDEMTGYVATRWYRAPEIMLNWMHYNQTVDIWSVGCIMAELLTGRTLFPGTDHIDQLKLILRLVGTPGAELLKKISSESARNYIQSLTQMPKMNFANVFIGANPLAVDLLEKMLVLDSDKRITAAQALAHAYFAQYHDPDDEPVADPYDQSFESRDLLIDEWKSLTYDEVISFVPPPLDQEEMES

Compound	IC50 (p38α)	IC50 [1]	IC50 [2]
CCCc1ccc(C(=O)Nc2cc(C(=O)Nc3cccc(N(C)C)c3)ccc2C)cc1 [Example 3, Compound No. 1, N-(3-dimethylaminophenyl)-4-methyl-3-(4-propylbenzamido)benzamide]	~300 nM	~6000 nM	–
Cc1ccc(C(=O)Nc2cccc(N3CCOCC3)c2)cc1NC(=O)c1cccc(OC2CCNCC2)c1 [Example 20, 4-methyl-N-(3-morpholinophenyl)-3-(3-piperidin-4-yloxybenzamido)benzamide]	~50 nM	–	~2000 nM
Cc1ccc(C(=O)Nc2cccc(N(C)C)c2)cc1NC(=O)c1ccc2ncccc2c1 [Example 12, N-(3-dimethylaminophenyl)-4-methyl-3-(6-quinolylcarbonylamino)benzamide]	~700 nM	~22000 nM	–
CCN(CC)Cc1ccc(C(=O)Nc2cc(C(=O)Nc3cccc(N4CCOCC4)c3)ccc2C)cc1 [Example 31(4), 4-methyl-3-(4-diethylaminomethylbenzamido)-N-(3-morpholinophenyl)benzamide]	~300 nM	–	~15000 nM
COc1ccc(C(=O)Nc2cc(C(=O)NCCC3CCCCC3)ccc2C)cc1OC [Example 11, N-(2-cyclohexylethyl)-3-(3,4-dimethoxybenzamido)-4-methylbenzamide]	~1000 nM	~8000 nM	–
Cc1ccc(C(=O)Nc2cccc(N3CCOCC3)c2)cc1NC(=O)c1cccc(CN2CCN(C)CC2)c1 [Example 30, 4-methyl-3-[3-(4-methylpiperazin-1-ylmethyl)benzamido]-N-(3-morpholinophenyl)benzamide]	~50 nM	–	~5000 nM

Source: US6821965B1, “Amidobenzamide derivatives which are useful as cytokine inhibitors” (AsterZeneca AB, priority 1998, dated 2004)
